Here are results for one molecule from US11091522B2, “Peptidomimetic macrocycles and uses thereof” (priority 2018, dated 2021).

One data set deals with p21. Put plainly: p21 ELISA assay in SJSA-1 cells. Format: cell-based, human. To be noted: SJSA-1 osteosarcoma cells. For orientation: An ELISA detects its analyte on a solid surface through an enzyme-linked reagent.
A further data set deals with hERG potassium channels (Homo sapiens, UniProt Q12809). The following applies: in vitro.
The test system of data set [1] is human peripheral blood lymphocyte.
The test system of data set [2] is advanced solid tumors or lymphomas. Put plainly: Phase 1/2a clinical study of AP1 alone or with palbociclib.
Setting [3] is: Patient 001-005, cohort 1, Liposarcoma, MDM2 CN 276.
[4] abbreviates: Patient 009-116, cohort 7b, Retroperitoneal liposarcoma, MDM2 CN 25.

Sequence of hERG potassium channels (Q12809 whole entry): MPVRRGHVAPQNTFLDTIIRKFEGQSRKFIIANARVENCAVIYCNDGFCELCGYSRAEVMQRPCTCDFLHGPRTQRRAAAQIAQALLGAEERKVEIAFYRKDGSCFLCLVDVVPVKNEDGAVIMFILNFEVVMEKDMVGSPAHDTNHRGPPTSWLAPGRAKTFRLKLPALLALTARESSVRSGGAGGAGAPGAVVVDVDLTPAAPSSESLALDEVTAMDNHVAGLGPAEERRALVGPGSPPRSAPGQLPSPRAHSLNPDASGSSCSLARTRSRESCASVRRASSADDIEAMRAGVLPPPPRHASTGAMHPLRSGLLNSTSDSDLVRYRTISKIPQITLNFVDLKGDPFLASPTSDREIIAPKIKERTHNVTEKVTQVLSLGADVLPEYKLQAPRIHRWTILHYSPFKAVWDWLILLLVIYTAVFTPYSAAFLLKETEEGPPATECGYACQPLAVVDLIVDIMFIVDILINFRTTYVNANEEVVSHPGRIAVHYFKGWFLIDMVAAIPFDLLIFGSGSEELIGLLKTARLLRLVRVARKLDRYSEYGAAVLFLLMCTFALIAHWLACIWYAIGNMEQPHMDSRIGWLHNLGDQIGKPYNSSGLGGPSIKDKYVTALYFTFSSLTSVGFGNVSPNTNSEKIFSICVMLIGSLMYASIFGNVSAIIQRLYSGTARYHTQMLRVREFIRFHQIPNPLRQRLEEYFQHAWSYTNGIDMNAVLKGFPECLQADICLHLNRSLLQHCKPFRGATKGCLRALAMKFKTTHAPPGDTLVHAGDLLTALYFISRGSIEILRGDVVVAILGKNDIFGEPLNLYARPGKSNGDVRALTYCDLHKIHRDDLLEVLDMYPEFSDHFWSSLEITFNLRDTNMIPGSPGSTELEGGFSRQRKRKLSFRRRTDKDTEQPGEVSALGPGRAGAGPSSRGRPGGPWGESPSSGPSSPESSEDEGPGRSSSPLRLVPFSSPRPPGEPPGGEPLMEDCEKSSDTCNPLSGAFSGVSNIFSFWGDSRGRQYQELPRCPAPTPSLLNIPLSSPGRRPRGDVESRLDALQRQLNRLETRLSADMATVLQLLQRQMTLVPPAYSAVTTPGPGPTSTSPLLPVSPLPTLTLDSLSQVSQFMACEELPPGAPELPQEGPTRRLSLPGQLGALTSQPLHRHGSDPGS

`CC(=O)N[C@@H](CC(C)C)C(=O)N[C@H](C(=O)N[C@@H](Cc1ccccc1)C(=O)N[C@]1(C)CCCCCC/C=C\CCC[C@@](C)(C(=O)N[C@@H](C)C(=O)N[C@@H](C)C(=O)N[C@@H](C)C(=O)N[C@@H](C)C(=O)N[C@@H](C)C(=O)N[C@H](C)C(N)=O)NC(=O)[C@H](CC(C)C)NC(=O)[C@H](CCC(N)=O)NC(=O)[C@H](C)NC(=O)[C@H](Cc2c[nH]c3ccccc23)NC(=O)[C@H](Cc2ccc(O)cc2)NC(=O)[C@H](CCC(=O)O)NC1=O)[C@@H](C)O` [AP1]: the p21 protein result with p21 is recorded as “concentration-dependent increase in p21 protein”. Also, on hERG potassium channels, the “effects on hERG potassium channels” value is reported as “No significant adverse findings”. Besides, the chromosomal aberrations entry in data set [1] is “negative”. Besides, the DLTs result is “only one DLT was observed (fatigue)” in data set [2] (DL-6A (3.1 mg/kg), six DLT-evaluable patients); “hypotension and hepatobiliary laboratory abnormalities” in data set [2] (patients, DL-7A (DR-7A), two DLTs); “anemia and neutropenia” in data set [2] (patients, DR-7A-2, two DLTs). Moreover, the “Best % Change from Baseline” value is 11.6% in data set [2] (setting [3]); 0% in data set [2] (Patient 001-015, cohort 3b, Leiomyosarcoma, MDM2 CN 99); −13.3% in data set [2] (Patient 001-115, cohort 7a, Breast, MDM2 CN 11); 15.8% in data set [2] (Patient 006-053, cohort 4b, Liposarcoma, MDM2 CN 100); 0% in data set [2] (Patient 006-093, cohort 6b, Liposarcoma, MDM2 CN 48); 9.8% in data set [2] (Patient 006-096, cohort 7b, Well differentiated liposarcoma, MDM2 CN 118). Further, the “Best % Change from Baseline” value in data set [2] (Patient 006-098, cohort 6b, Gastric adenocarcinoma, MDM2 CN 23) is reported as 15.8%; in data set [2] (Patient 009-085, cohort 6a, Bladder carcinoma, MDM2 CN 72), 28.8%; in data set [2] (setting [4]) it was 11%; in data set [2] (Patient 009-120, cohort 7a, Atypical lipomatous tumor, MDM2 CN 49), −36.9%. The “Best Overall Response” value in data set [2] (setting [3]) and in data set [2] (setting [4]) was “CDP” each time. Also, the “drug-related AE Grade ≥2” value was “neutropenia” in data set [2] (patients, DL-3B) and “fatigue” in data set [2] (patients, DL-4A).
